Patent US4181715A (priority 1975, dated 1980)

What was measured:
[1] = system: rice blast pathogenic fungus (Pyricularia oryzae); format: in vivo; conditions: 5 ppm
[2] = system: Trichomonas vaginalis Ito; assay: Antitrichomonas activity test using mice; format: in vivo, Trichomonas vaginalis Ito in SLC-ICR strain male mice
From the text: Test Compounds: SF-1540-A' (substance SF-1540 treated with methanol). Control--Flagyl (MNZ, available from Shionogi Seiyaku K.K., Japan)=Metronidazol--1'-(2'-Hydroxyethyl)-2'-methyl-5'-nitroimidazole [drawing 1]
1. Test protozoa strain: Trichomonas vaginalis Ito
2. Host animals: SLC-ICR strain male mice of average body weight of 20 g. and 5-week age, each group consisting of 5 animals.
3. Inoculation of protozoa: Protozoa were inoculated to Bacto-Kupferberg Trichomonas base (Difco; 20% calf serum added), cultivation was conducted at 37° C. for 24 hours, propagated protozoa were collected and centrifuged at 1500 r.p.m. for 5 minutes and then washed twice with centrifugation in sterilized Locke-Ringer's solution. The supernatant was discarded and the residue was diluted with sterilized Ringer's solution so as to have a protozoal number of 500×10^4 ml. Each 0.2 ml. portion (the protozoal number of 100×10^4) was inoculated to mice at subcutaneous sites of the back thereof wherein fur was previously removed.
4. Preparation of test samples: Each test compound was asceptically weighed, finely-divided in a sterilized mortar and then suspended in a 1% CMC solution to form suspensions of given concentrations.
5. Dose and administration: The SF-1540-A' was used at 3 dose levels: 50 mg./kg. (1 mg./0.2 ml./mouse/day), 25 mg./kg. (0.5 mg./0.2 ml./mouse/day) and 12.5 mg./kg. (0.25 mg./0.2 ml./mouse/day), while Flagyl as control was used at 2 dose levels: 25 mg./kg. (0.5 mg./0.2 ml./mouse/day) and 12.5 mg./kg. (0.25 mg./0.2 ml./mouse/day). After 24 hours from protozoa inoculation, the SF-1540-A' was given subcutaneously and Flagyl orally once a day for 6 days (Total, 6 times). As control, each 0.2 ml. portion of a 1% CMC solution was subcutaneously administered.
Formation of an abscess at a subcutaneous site of the back of a host animal was visually detectable for its protuberance after 48 hours from the protozoa inoculation.
Size of abscess was measured when sacrificed and cultivated to confirm effectiveness of the test compound after 24 hours from the 6 administrations.

Row | Compound | Preventive & curative value [1] [%] | Average number of diseased spots per leaf ([1]; after 5 days) | difference from 1% CMC group (Tukey) ([2]; 12.5 mg./kg. orally) | difference from 1% CMC group (Tukey) ([2]; 25 mg./kg. orally) | abscess, visual observation ([2]; 25 mg./kg. orally once a day, after 3 administrations) | abscess at sacrifice, 24 hours after 6 administrations ([2]; mouse, in vivo, po) | bulge upon sacrifice ([2]; mouse, in vivo, po)
1 | CN(CCC(N)CC(=O)NC1C=CC(n2ccc(N)nc2=O)OC1C(=O)O)C(=N)N (stereo not shown) [Blasticidin S] | 85 | 3.6 |  |  |  |  | 
2 | Cc1ncc([N+](=O)[O-])n1CCO [Flagyl, 1'-(2'-Hydroxyethyl)-2'-methyl-5'-nitroimidazole] |  |  | significant at the 5% level of significance | significant at the 1% level of significance | a remarkable reduction in abscess | abscess disappeared | only a slight bulge
